From patent publication US20210275514A1, “COMPOUNDS FOR USE IN TREATING KIDNEY DISORDERS” (Hoffmann-La Roche Inc., priority 2018, published 2021)
Entries after “also recorded” stand apart in the source; their conditions may differ.

How the values were obtained:
Details in all cases: 18 h
ABCA1 [1] = assay: Cell fractionation, ABCA1 localization by western blot; format: cell-based, human
Procedure: 14 day-differentiated podocytes were treated with compounds Cpd C (1 μM), Cpd A (5 μM) and Cpd G (10 μM) for 18 h and then washed and scraped with ice cold PBS. Cells were centrifuged at 1,000×g for 5 min, supernatant was carefully aspirated and the pellet resuspended in hypotonic buffer (15 mM KCl, 1.5 mM MgCl2, 10 mM HEPES and 1 mM DTT) supplemented with Roche's protease inhibitor cocktail. Further cell rupture was ensured by frothing in a glass douncer and two freeze and thaw cycles. Sucrose was added, 227 mM final concentration, and the cells were centrifuged at 1,000×g for 30 min at 4° C. The supernatant was then transferred to a new tube and centrifuged at 10,000×g for 15 min at 4° C. The pellet, containing the microsomal fraction was collected and the supernatant was transferred to a new tube and centrifuged at 100,000×g for 1 hr at 4° C. The pelleted plasma membrane fraction was collected and the supernatant, containing non membranous cytosolic fraction, was concentrated in Vivaspin 500 filter columns. The presence of ABCA1, and proteins known to be present at the plasma membrane (Na^+/K^+ sodium pump) and cytosol (MEK), in each fraction was verified by western blot.
Lysates, or cell fractions were incubated with buffer sample at 55° C. for 10 min under reducing conditions. A total of […] of protein in lysates, and one third of the volume collected in cell fraction preps, were separated by SDSPAGE in 4-20% gels (Biorad) and proteins were then transferred to PVDF membranes. Membranes were blocked with 5% milk and blotted with protein-specific antibodies for 18 h at 4° C. The following antibodies were used: mouse anti-ABCA1 (Abcam; 1:1,000), rabbit anti-GAPDH antibody (Millipore; 1:10,000), rabbit anti-MEK and anti-Na^+/K^+ ATPase (Cell Signaling; 1:1,000). After washing with PBS-T, membranes were incubated with anti-mouse and anti-rabbit specific antibodies conjugated to HRP (Promega) 1:10,000 in 5% milk. Membranes were washed and signal was developed using Western bright ECL substrate (Advansta).

[2] = tested on: differentiated human podocytes; assay: Compound cytotoxicity in differentiated human podocytes (ApoTox-Glo Triplex Assay); format: cell-based
Procedure: Podocytes were seeded in 96-well plates (Greiner) and allowed to differentiate for 14 days. Cells were then washed with PBS, and incubated with media (RPMI-0.2% BSA) with or without vehicle and compounds for 18 h at 37° C., 5% CO2. Compound concentrations tested were 1 μM, 5 μM, 10 μM and 20 μM. Vehicle (DMSO) final concentration was 0.1%. All treatments were done in duplicates. Cytotoxicity was assayed using ApoTox-Glo Triplex Assay (Promega) following manufacturer's instructions. Briefly, cell-permeant (GF-AFC) and cell impermeant (bis-AAF-R110) peptide substrates were diluted and added to all wells and the cells were incubated at 37° C., 5% CO2 for 1 hr. A set of cells were treated with saponin (2 mg/ml) as a positive control of cell cytotoxicity. Cell viability and cytotoxicity fluorescence signals were measured at 400 nm/505 nm and 485 nm/520 nm Excitation/Emission, respectively using a fluorescence microplate reader (SpectraMax i3). RFU signal obtained with the cell toxicity substrate was normalized to the one obtained with the viable substrate in the same well to eliminate the effect of different cell numbers per well.

ABCA1 [3] = assay: ApoA1-mediated cholesterol efflux in differentiated podocytes; format: cell-based, human
Procedure: Human podocytes differentiated for 13 days were labeled with 1 μCi/ml of [^3H]-cholesterol in RPMI media with 2% FBS for 24 h. Cells were then washed with PBS and incubated with equilibration media (RPMI-0.2% fat free-BSA) supplemented with vehicle or compounds Cpd C (1 μM), Cpd A (1 μM, 5 μM) and Cpd G (1 μM, 5 μM, 10 μM) for 18 h. Cells were then washed with PBS, and incubated with equilibration media with or without 20 μg/ml of human ApoA1 for 18 h at 37° C., 5% CO2. Media was collected, spun at 12,000×g for 5 min and the radioactivity of the 200 μl aliquot was counted by liquid scintillation. Cells were washed with PBS, lysed with 250 μl 0.1% SDS, 0.1 M NaOH and the radioactivity in 100 μl aliquot was measured by liquid scintillation. Cholesterol efflux was calculated as the % of labeled cholesterol that moved from the cell to the media by the formula:
Efflux (%)=100×{(cpm media)/[(cpm media)+(cpm lysate)]}
ApoA1-mediated cholesterol efflux was calculated as the difference between the efflux in the presence or absence of ApoA1. All treatments were done in duplicate. More than 3 independent experiments were performed.

[4] = concentrations above 10 uM, FIG. 3

Structure (SMILES)	ABCA1 localization at the plasma membrane (ABCA1 [1]; 1 μM)	Cytotoxicity ([2]; 20 μM)	Cytotoxicity [2, 4]	ApoA1-mediated cholesterol efflux (ABCA1 [3]; 1 μM)	ABCA1 in the microsomal compartment (ABCA1 [1]; 10 μM)	ABCA1 localization at the plasma membrane (ABCA1 [1]; 10 μM)	ApoA1-mediated cholesterol efflux (ABCA1 [3]; 10 μM)	ABCA1 in the microsomal compartment (ABCA1 [1]; 5 μM)	ABCA1 localization at the plasma membrane (ABCA1 [1]; 5 μM)	ApoA1-mediated cholesterol efflux (ABCA1 [3]; 5 μM)
Cc1oc(-c2cccc(C(F)(F)F)c2)nc1Cn1c(C)cc2cc(C(O)(C(F)(F)F)C(F)(F)F)ccc21 [Cpd C, 1,1,1,3,3,3-Hexafluoro-2-{2-methyl-1-[5-methyl-2-(3-trifluoromethyl-phenyl)-oxazol-4-ylmethyl]-1H-indol-5-yl}-propan-2-ol, reference compound]	increase the expression of ABCA1 at the plasma membrane; also recorded: promoted ABCA1 localization at the plasma membrane	significant toxicity	significant toxicity	increase ApoA1-mediated cholesterol efflux; also recorded: Significant increase	–	–	–	–	–	–
O=C(N[C@@H]1CCCC[C@H]1O)c1cnc(OCC(F)(F)F)c(-c2ccc(Cl)c(Cl)c2)c1 [Cpd G, 5-(3,4-dichloro-phenyl)-N-((1R,2R)-2-hydroxy-cyclohexyl)-6-(2,2,2-trifluoro-ethoxy)-nicotinamide]	–	–	–	–	Less ABCA1	increase the expression of ABCA1 at the plasma membrane; also recorded: promoted ABCA1 localization at the plasma membrane	increase ApoA1-mediated cholesterol efflux; also recorded: Significant increase	–	–	–
O=C(N[C@@H]1CCCC[C@H]1O)c1ccc(OCC(F)(F)F)c(-c2ccc(Cl)c(Cl)c2)n1 [Cpd A, 6-(3,4-Dichlorophenyl)-N-[(1R,2R)-2-hydroxycyclohexyl]-5-(2,2,2-trifluoroethoxy)pyridine-2-carboxamide]	–	significant toxicity	significant toxicity	–	–	–	–	Less ABCA1	increase the expression of ABCA1 at the plasma membrane; also recorded: promoted ABCA1 localization at the plasma membrane	increase ApoA1-mediated cholesterol efflux; also recorded: Significant increase
